In patent US7294625B2, “Pyrazole compounds” (Ube Industries, Ltd., priority 2002, dated 2007):

Experiments:
p38MAP kinase = biological target: T1, p38MAP kinase (Homo sapiens, UniProt Q16539); assay: Enzyme inhibitory test against p38MAP kinase; format: biochemical; settings: active type p38MAP kinase, EGFR peptide substrate, [γ-32P]ATP, 30° C. 30 minutes; read-out: p38MAP kinase inhibition IC50 value
T1 construct: purchased Stratagene (p38MAP kinase); Upstate (SKK/MKK6) #206145 (p38MAP kinase); #14-225 or #14-303 (SKK/MKK6)
Protocol: Test Example 1 Enzyme Inhibitory Test Against p38MAP Kinase
(1) Preparatoin of Active Type p38MAP Kinase
An active type p38MAP kinase was prepared by incubation in a reaction solution (25 mM Tris-HCl pH 7.5, 5 mM β-glycerolphosphate, 2 mM DTT, 0.1 mM […], 10 mM MgCl2, 1 mM ATP) containing p38MAP kinase (Stratagene, #206145) and SKK/MKK6 (Upstate, #14-225 or #14-303) at 30° C. for 1 to 3 hours. This enzyme solution was diluted 5 to 10-fold with Stock Buffer (50 mM Tris-HCl pH 7.5, 0.1 mM EGTA, 0.2 mM Orthovanadate, 0.1% 2-ME, 10% glycerol, 0.03% Brij-35, 0.5 μM Microcystin), and preserved under freezing (−80° C.).
(2) Measurement of Inhibitory Activity of p38MAP Kinase
To 34 μL of a reaction solution (25 mM HEPES, pH 7.5, 10 mM Magnesium acetate) containing the active type p38MAP kinase prepared as mentioned above and a substrate (final concentration: […] EGFR; […]) was added 1 μL of DMSO, or a compound to be tested and dissolved in DMSO, then, the mixture was subjected to preincubation at 4° C. for 30 minutes. A reaction was started by adding 5 μL of an ATP solution (400 μM ATP, 1 μCi/μL [γ-^32P]ATP), and reacted at 30° C. for 30 minutes, and then, the reaction was stopped by adding 5 μL of 250 mM H3PO4. 25 μL of the reaction solution was placed on chromatography paper (Whatman, #P81), dried for about 2 minutes, and washed with 75 mM H3PO4. Water was removed by using 95% ethanol, it was transferred to a bial containing liquid scintillation cocktail (available from Nacalai Tesque), and radioactivity was measured. A concentration (IC50 value) of a compound to be tested necessary for inhibiting 50% of phosphrylation (^32P) of the substrate by the enzyme was calculated as compared to that non-treated by the compound to be tested by XL-fit (available from IDBS).

[1] = test system: rat adjuvant arthritis model; assay: Anti-inflammatory effect in rat adjuvant arthritis model; format: in vivo; settings: LEW rats, 3 mg/Kg oral once a day
Protocol: Test Example 4 Anti-inflammatory Effect in Rat Adjuvant Arthritis Model
Heat-killed bacteria of Mycobacterium butyricum (available from Difco) were pulverized by agate mortar, and this was suspended in dry-heat sterilized liquid paraffin (available from Wako Pure Chemical Industries, Ltd.) so as to have 10 mg/ml, and subjected to ultrasonic wave treatment to obtain an adjuvant. 500 μg/50 μl/paw of the adjuvant was administered into right hind paw of LEW series rats (female, 7-weeks old, available from Charles River Japan, Inc.) under isoflurane (Forane, available from Abbott Japan) inhalation anesthesia to induce adjuvant arthritis. Also, liquid paraffin containing no dead bacteria was also administered in the same manner as mentioned above to prepare a non-treatment group.
The test compound was suspended in a 0.5% aqueous sodium carboxymethyl cellulose solution, or dissolved in distilled water for injection, and orally administered at a dose of 10 ml/kg once a day from the injected day of the adjuvant (0th day) to 27th day.
After 7th, 14th, 21st and 28th day from administration of the adjuvant, volumes of the right hind paw to which the adjuvant had been administered and of left hind paw to which no adjuvant had been administered were measured by a plethysmometer (TK-101CMP, UNICOM). An edema ratio was calculated from the following equation. Edema ratio (%)=[(volume of hind paw at the time of measurement)/(volume of hind paw before initiation of the test)−1]×100 Moreover, edema suppressive ratio based on the control group to which the vehicle was administered was calculated from the following equation. Edema suppressive ratio (%)=[1-{(edema ratio of test compound-administered group)−(edema ratio of non-treated group)}/{(edema ratio of control group)−(edema ratio of non-treatment group)}]×100 The test results are shown in Table 8.

[2] = test system: cytokine (IL-1β and TNF-α) induced IL-6 production; assay: Inhibition of IL-6 production in rat (in vivo); settings: LEW rats, 3 mg/Kg oral, 1 hour before IL-1β/TNF-α i.v., serum IL-6 two hours later
Protocol: Test Example 3 Inhibition of IL-6 Production in Rat (In Vivo)
A cytokine mixed solution of IL-1β and TNF-α was intravenously injected to rats to induce production of IL-6. A mixed solution of IL-1β (available from R&D) (4 μg/ml) and TNF-α (available from R&D) (2 μg/ml) dissolved in PBS was administered to tail vein of LEW series rats (female, body weight: about 140 to 170 g, available from Charles River Japan, Inc.) fasted overnight with a ratio of 1 ml/kg of the body weight. Two hours later, blood was collected from the neck vein under ether anesthesia. The collected blood was centrifuged under the conditions of 20° C. and 10,000×g to separate serum. IL-6 concentration in the serum was measured by using an enzyme-linked immunosorbent assay (ELISA) kit (IL-6 ELISA KIT, available from R&D).
The test compound or the vehicle was orally administered with a dose of 10 ml/kg of the body weight before 1 hour of the injection of the cytokine mixed solution. The control group to which the vehicle was administered and the group of the compound to be tested were each 5 rats per group. An inhibitory ratio of the group of the compound to be tested based on control group was calculated.

[3] = test system: LPS-induced TNF-α production in human PBMC; assay: Inhibition of TNF-α production in human PBMC (in vitro); format: cell-based; settings: LPS 10 μg/ml, 18 hours, TNF-α ELISA, read-out: Inhibitory effect on LPS-induced TNF-α production in human PBMC IC50 value
Protocol: Test Example 2 Inhibition of TNF-α Production in Human PBMC (In Vitro)
Test was carried out according to the method of Welker et al. (Int. Arch. Allergy Immunol., 109, 110-115 (1996).
Heparin-added blood collected from healthy volunteer with consent was underlayed with a specific gravity-separating solution (Lymphoprep; available from Daiichi Pure Chemicals Co., Ltd.), subjected to centrifugation (800×g, 25 minutes), and a mononuclear cell layer was recovered. The obtained mononuclear cells (human PBMC) were washed twice with PBS (available from SIGMA), and resuspended in 1% FCS-containing RPMI aqueous solution (available from GIBCO) so that the cells became 5×10^6 cells/mL. The thus obtained cell suspension was diluted 10-fold with 1% FCS-containing RPMI medium, DMSO (or the compound to be tested) with a final concentration of 0.5% was added thereto, and cultured at 37° C. in 5% CO2 for 1 hour. After that, LPS (derived from E. Coli 055:5B, available from SIGMA) solution prepared by PBS was added so that the final concentration thereof being 10 μg/ml, and cultivation was carried out for further 18 hours. After the cultivation, culture medium was subjected to centrifugation (800×g, 10 minutes), and a concentration of TNF-α produced in the supernatant was measured by an enzyme-linked immunosorbent assay (ELISA) kit (TNF-α ELISA Kit, available from R&D). The concentration (IC50 value) of the test compound for inhibiting 50% of TNF-α production was calcualted by using XL-fit (available from IDBS).

T1 sequence (Q16539 whole entry): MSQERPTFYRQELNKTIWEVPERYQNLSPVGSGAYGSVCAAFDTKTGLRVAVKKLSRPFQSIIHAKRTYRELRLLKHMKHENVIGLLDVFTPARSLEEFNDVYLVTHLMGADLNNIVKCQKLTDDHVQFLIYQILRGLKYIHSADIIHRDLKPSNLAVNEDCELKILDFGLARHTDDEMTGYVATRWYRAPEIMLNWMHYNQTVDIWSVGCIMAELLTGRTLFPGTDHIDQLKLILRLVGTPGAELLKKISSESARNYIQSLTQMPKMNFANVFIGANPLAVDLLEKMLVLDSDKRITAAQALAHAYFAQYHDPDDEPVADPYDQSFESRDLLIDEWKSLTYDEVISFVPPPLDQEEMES

Row | IC50 (p38MAP kinase) [nM] | Compound | 28th day left hind paw edema suppressive ratio (%) @3 mg/Kg [1] | Rat cytokine induced IL-6 production inhibiting ratio (%) @3 mg/Kg [2] [%] | IC50 [3] [nM] | left hind paw edema suppressive ratio (%) @3 mg/Kg ([1]; 21st day)
1 | 7.4 | Nc1cc(-c2cn(-c3ccc4nncn4n3)nc2-c2ccc(F)cc2)ccn1 [Example 8, 4-(2-Aminopyridin-4-yl)-3-(4-fluorophenyl)-1-([1,2,4]triazolo[4,3-b]pyridazin-6-yl)-1H-pyrazole] | 79 (28th day) % |  |  | 
2 | 9.5 | Nc1cc(-c2cn(-c3ccc4nncn4n3)nc2-c2ccccc2F)ccn1 [Example 42, 4-(2-Aminopyridin-4-yl)-3-(2-fluorophenyl)-1-([1,2,4]triazolo[4,3-b]pyridazin-6-yl)-1H-pyrazole] |  | 73 |  | 
3 | 7 | Nc1cc(-c2cn(C3=NNC(=O)CC3)nc2-c2ccccc2)ccn1 [Example 49, 4-(2-Aminopyridin-4-yl)-1-(1,4,5,6-tetrahydro-6-oxopyridazin-3-yl)-3-phenyl-1H-pyrazole] |  | 84 |  | 
4 | 29 | CNc1cc(-c2cn(-c3ccc4nncn4n3)nc2-c2ccc(F)cc2)ccn1 [Example 13, 3-(4-Fluorophenyl)-4-(2-methylaminopyridin-4-yl)-1-([1,2,4]triazolo[4,3-b]pyridazin-6-yl)-1H-pyrazole] |  |  |  | 79 (21st day) %
5 | 2 | Fc1ccc(-c2nn(-c3ccc4nncn4n3)cc2-c2ccnc(NCC(F)(F)F)c2)cc1 [Example 16, 3-(4-Fluorophenyl)-1-([1,2,4]triazolo[4,3-b]pyridazin-6-yl)-4-[2-(2,2,2-trifluoroethyl)aminopyridin-4-yl]-1H-pyrazole] |  | 97 |  | 

Further lines, the compound ahead of its results:

Row | Compound | IC50 (p38MAP kinase) [nM] | 28th day left hind paw edema suppressive ratio (%) @3 mg/Kg [1] | Rat cytokine induced IL-6 production inhibiting ratio (%) @3 mg/Kg [2] [%] | IC50 [3] [nM] | left hind paw edema suppressive ratio (%) @3 mg/Kg ([1]; 21st day)
6 | Fc1ccc(-c2nn(-c3ccc4nncn4n3)cc2-c2ccncc2)cc1 [Example 5, 3-(4-Fluorophenyl)-4-(pyridin-4-yl)-1-([1,2,4]triazolo[4,3-b]pyridazin-6-yl)-1H-pyrazole] | 25 |  | 92 | 4 | 
7 | Nc1cc(-c2cn(-c3ccc(=O)[nH]n3)nc2-c2ccccc2)ccn1 [Example 20, 4-(2-Aminopyridin-4-yl)-1-(1,6-dihydro-6-oxopyridazin-3-yl)-3-phenyl-1H-pyrazole] |  |  | 78 |  | 
8 | CNc1cc(-c2cn(-c3ccc(=O)[nH]n3)nc2-c2ccc(F)cc2)ccn1 [Example 3, 3-(4-Fluorophenyl)-1-(1,6-dihydro-6-oxopyridazin-3-yl)-4-(2-methylaminopyridin-4-yl)-1H-pyrazole] |  |  | 81 |  | 
9 | Nc1cc(-c2cn(-c3ccc(=O)[nH]n3)nc2-c2ccc(F)cc2)ccn1 [Example 2, 4-(2-Aminopyridin-4-yl)-3-(4-fluorophenyl)-1-(1,6-dihydro-6-oxopyridazin-3-yl)-1H-pyrazole] | 2.5 | 83 (28th day) % |  | 24 | 
